Laboratory results reported in article PMC6470675, “Design and Synthesis of New Quinoxaline Derivatives as Anticancer Agents and Apoptotic Inducers” (Molecules, 2019).
pIC50: −log10 of the molar value.

system: HCT116 human colon carcinoma cell line; assay: In vitro cell proliferation (MTT) assay, HCT116; format: cell-based; settings: not given
Procedure: (§1) The targeted compounds were tested for their in-vitro anti-cancer activity against three tumor cell lines (HCT116, Hep G2 and MCF-7). Doxorubicin was included in the experiments as a reference cytotoxic compound. Exponentially growing cells from different cancer cell lines were trypsinized, counted and seeded at the appropriate densities into 96-well microtiter plates. Cells then were incubated in a humidified atmosphere at 37 °C for 24 h. Then, cells were exposed to different concentrations of compounds for 72 h. Then the viability of treated cells was determined using MTT technique (described latter).
(§2) Three cancer cell lines including human colon carcinoma (HCT116), human breast adenocarcinoma (MCF-7) and human hepatocellular carcinoma (Hep G2), were purchased from American Type Cell Culture Collection (ATCC, Manassas, VA, USA) and grown on the appropriate growth medium Dulbecco’s modified Eagle’s medium (DMEM) or Roswell Park Memorial Institute medium (RPMI 1640) supplemented with […] of streptomycin, 100 units/mL of penicillin and 10% of heat-inactivated fetal bovine serum in a humidified, 5% (v/v) CO2 atmosphere at 37 °C [34]. Cytotoxicity assay by 3-[4,5-dimethylthiazole-2-yl]-2,5-diphenyltetrazolium bromide (MTT).
(§3) Exponentially growing cells from different cancer cell lines were trypsinized, counted and seeded at the appropriate densities (2000–1000 cells/0.33 cm^2 well) into 96-well microtiter plates. Cells then were incubated in a humidified atmosphere at 37 °C for 24 h. Then, cells were exposed to different concentrations of compounds (0.1, 10, 100, 1000 µM) for 72 h. Then the viability of treated cells was determined using MTT technique as follow. Media were removed; cells were incubated with 200 μL of 5% MTT solution/well (Sigma Aldrich, Darmstadt, Germany) and were allowed to metabolize the dye into a colored-insoluble formazan crystal for 2 h. The remaining MTT solution were discarded from the wells and the formazan crystals were dissolved in 200 µl/well acidified isopropanol for 30 min, covered with aluminum foil and with continuous shaking using a MaxQ 2000 plate shaker (Thermo Fisher Scientific Inc, Waltham, MA, USA) at room temperature. Absorbance were measured at 570 nm using a Stat Fax^R 4200 plate reader (Awareness Technology, Inc., Awareness Technology, FL, USA). The cell viability was expressed as percentage of control and the concentration that induces 50% of maximum inhibition of cell proliferation (IC50) were determined using Graph Pad Prism version 5 software (Graph Pad Software Inc, San Diego, CA, USA) (1,2).

| SMILES | anti-cancer activity against HCT116 cell line (in words) |
| --- | --- |
| Cc1nc2ccccc2nc1Nc1ccc(NC(=O)c2ccc(Cl)cc2)cc1 [Compound VIIb, 4-Chloro-N-(4-((3-methylquinoxalin-2-yl)amino)phenyl)benzamide] | weak activity |
| Cc1nc2ccccc2nc1Nc1ccc(NC(=O)Nc2ccccc2)cc1 [Compound VIIIb, 1-(4-((3-Methylquinoxalin-2-yl)amino)phenyl)-3-phenylurea] | weak activity |
| Cc1cccc(NC(=O)Nc2ccc(Nc3nc4ccccc4nc3C)cc2)c1 [Compound VIIId, 1-(4-((3-Methylquinoxalin-2-yl)amino)phenyl)-3-(m-tolyl)urea] | moderate anti-cancer activity |

same assay, conditions: Homo sapiens, HCT-116; MTT, 72 h exposure

| SMILES | pIC50 |
| --- | --- |
| O=[N+]([O-])c1ccc(S(=O)(=O)Nc2ccc(Nc3nc4ccccc4nc3Cl)cc2)cc1 [XVIIIb, N-(4-((3-Chloroquinoxalin-2-yl)amino)phenyl)-4-nitrobenzenesulfonamide] | < 3.00 |
| Cc1nc2ccccc2nc1Nc1ccc(NC(=O)c2ccc(Cl)cc2)cc1 [Compound VIIb, 4-Chloro-N-(4-((3-methylquinoxalin-2-yl)amino)phenyl)benzamide] | 4.56 |
| Cc1nc2ccccc2nc1Nc1ccc(NC(=O)Nc2ccccc2)cc1 [Compound VIIIb, 1-(4-((3-Methylquinoxalin-2-yl)amino)phenyl)-3-phenylurea] | 4.42 |
| Cc1cccc(NC(=O)Nc2ccc(Nc3nc4ccccc4nc3C)cc2)c1 [Compound VIIId, 1-(4-((3-Methylquinoxalin-2-yl)amino)phenyl)-3-(m-tolyl)urea] | 4.96 |

system: Hep G2 human hepatocellular carcinoma cell line; assay: In vitro cell proliferation (MTT) assay, Hep G2; format: cell-based; settings: not given
Procedure: as §1, §2, §3

| SMILES | anti-cancer activity against Hep G2 cell line (in words) |
| --- | --- |
| Cc1nc2ccccc2nc1Nc1ccc(NC(=O)Nc2ccccc2)cc1 [Compound VIIIb, 1-(4-((3-Methylquinoxalin-2-yl)amino)phenyl)-3-phenylurea] | no significant inhibitory activity |
| Cc1cccc(NC(=O)Nc2ccc(Nc3nc4ccccc4nc3C)cc2)c1 [Compound VIIId, 1-(4-((3-Methylquinoxalin-2-yl)amino)phenyl)-3-(m-tolyl)urea] | weak activity |

same assay, conditions: Homo sapiens, HepG2; MTT, 72 h exposure

| SMILES | pIC50 |
| --- | --- |
| O=[N+]([O-])c1ccc(S(=O)(=O)Nc2ccc(Nc3nc4ccccc4nc3Cl)cc2)cc1 [XVIIIb, N-(4-((3-Chloroquinoxalin-2-yl)amino)phenyl)-4-nitrobenzenesulfonamide] | < 3.00 |
| Cc1nc2ccccc2nc1Nc1ccc(NC(=O)c2ccc(Cl)cc2)cc1 [Compound VIIb, 4-Chloro-N-(4-((3-methylquinoxalin-2-yl)amino)phenyl)benzamide] | 3.94 |
| Cc1nc2ccccc2nc1Nc1ccc(NC(=O)Nc2ccccc2)cc1 [Compound VIIIb, 1-(4-((3-Methylquinoxalin-2-yl)amino)phenyl)-3-phenylurea] | 4.01 |
| Cc1cccc(NC(=O)Nc2ccc(Nc3nc4ccccc4nc3C)cc2)c1 [Compound VIIId, 1-(4-((3-Methylquinoxalin-2-yl)amino)phenyl)-3-(m-tolyl)urea] | 4.44 |

same assay, conditions: relative to VIIIa

| SMILES | loss of activity towards Hep G2 on conversion of thiourea VIIIa into the urea [fold] |
| --- | --- |
| Cc1nc2ccccc2nc1Nc1ccc(NC(=O)Nc2ccccc2)cc1 [Compound VIIIb, 1-(4-((3-Methylquinoxalin-2-yl)amino)phenyl)-3-phenylurea] | 10 |

molecular target: T1, VEGFR-2 (Homo sapiens, UniProt P35968); assay: In vitro VEGFR-2 inhibition assay (Kinase-Glo Plus luminescence); format: biochemical; settings: single concentration of 10 µM; read-out: % of VEGFR-2 Inhibition
T1 construct: purchased Bio Science Corporation (BPS), San Diego, CA, USA
T1 sequence (P35968 20-1356): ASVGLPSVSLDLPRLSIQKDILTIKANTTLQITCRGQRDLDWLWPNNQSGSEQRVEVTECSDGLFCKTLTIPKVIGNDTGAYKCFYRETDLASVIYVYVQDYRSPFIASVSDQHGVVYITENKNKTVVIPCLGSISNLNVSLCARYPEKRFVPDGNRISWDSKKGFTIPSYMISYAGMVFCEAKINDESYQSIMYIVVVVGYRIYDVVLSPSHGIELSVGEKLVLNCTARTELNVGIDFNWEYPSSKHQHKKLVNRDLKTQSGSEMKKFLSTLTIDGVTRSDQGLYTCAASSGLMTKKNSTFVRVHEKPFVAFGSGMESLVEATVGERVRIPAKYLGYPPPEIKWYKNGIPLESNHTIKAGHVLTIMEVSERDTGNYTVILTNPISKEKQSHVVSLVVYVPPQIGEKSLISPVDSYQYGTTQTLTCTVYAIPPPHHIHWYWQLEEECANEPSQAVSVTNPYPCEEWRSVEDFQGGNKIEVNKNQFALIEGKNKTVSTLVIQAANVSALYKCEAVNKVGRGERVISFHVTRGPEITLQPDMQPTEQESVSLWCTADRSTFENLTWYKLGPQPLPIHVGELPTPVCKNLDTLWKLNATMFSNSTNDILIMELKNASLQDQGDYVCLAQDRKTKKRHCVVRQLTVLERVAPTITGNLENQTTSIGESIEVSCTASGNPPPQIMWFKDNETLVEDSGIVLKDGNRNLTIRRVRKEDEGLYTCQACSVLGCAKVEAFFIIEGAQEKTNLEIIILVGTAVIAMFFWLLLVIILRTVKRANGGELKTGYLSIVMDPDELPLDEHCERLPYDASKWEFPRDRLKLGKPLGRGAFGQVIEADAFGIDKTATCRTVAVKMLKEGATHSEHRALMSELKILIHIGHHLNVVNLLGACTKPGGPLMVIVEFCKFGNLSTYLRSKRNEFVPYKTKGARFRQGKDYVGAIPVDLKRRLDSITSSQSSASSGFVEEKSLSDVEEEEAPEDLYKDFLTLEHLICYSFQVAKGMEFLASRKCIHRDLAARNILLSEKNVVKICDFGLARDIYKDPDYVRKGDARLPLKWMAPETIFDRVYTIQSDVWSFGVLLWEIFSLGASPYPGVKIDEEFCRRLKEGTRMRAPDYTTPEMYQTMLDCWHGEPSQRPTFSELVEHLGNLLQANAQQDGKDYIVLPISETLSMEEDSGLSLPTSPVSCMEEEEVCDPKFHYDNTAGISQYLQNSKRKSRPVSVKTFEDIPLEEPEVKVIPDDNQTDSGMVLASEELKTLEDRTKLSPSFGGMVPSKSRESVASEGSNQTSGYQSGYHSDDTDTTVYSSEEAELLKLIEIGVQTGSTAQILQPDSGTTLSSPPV
Procedure: In an attempt to investigate the possible mechanism of action of the synthesized compounds based on structural similarity with sorafenib, all of them were tested for VEGFR-2 inhibitory activity at Bio Science Corporation (BPS, San Diego, CA, USA). The assay was performed using the Kinase-Glo Plus luminescence kinase assay kit (Promega, San Diego, CA, USA). It measures kinase activity by quantitating the amount of ATP remaining in solution following a kinase reaction. […].
The in-vitro enzyme inhibition determination for the synthesized compounds was carried out at Bio Science Corporation (BPS)-San Diego, CA, USA. The assay was performed using Kinase-Glo Plus luminescence kinase assay kit (Promega), where the kinase activity was measured by quantitating the amount of ATP remaining in solution following a kinase reaction. The luminescent signal from the assay is correlated with the amount of ATP present and is inversely correlated with the amount of kinase activity. Our compounds were diluted with 10% DMSO and 5 µL of the dilution was added to a 50 µL reaction so that the final concentration of DMSO is 1% in all of reactions. All of the enzymatic reactions were conducted at 30 °C for 40 min. The 50 µL reaction mixture contains 40 mM Tris, pH 7.4, 10 mM MgCl2, 0.1 mg/mL BSA, 1 mM DTT, 10 µM ATP, Kinase substrate and the enzyme. After the enzymatic reaction, 50 µL of Kinase-Glo Plus Luminescence kinase assay solution (Promega San Diego, CA, USA) was added to each reaction and incubate the plate for 5 min at room temperature. Luminescence signal was measured using a BioTek Synergy 2 microplate reader.
Kinase activity assays were performed in duplicate at each concentration. The luminescence data were analyzed using the computer software, Graphpad Prism. The difference between luminescence intensities in the absence of Kinase (Lut) and in the presence of Kinase (Luc) was defined as 100% activity (Lut − Luc). Using luminescence signal (Lu) in the presence of the compound, % activity was calculated as:% activity = {(Lut − Lu)(Lut − Luc)} × 100% where Lu = the luminescence intensity in the presence of the compound.

| SMILES | inhibition at 10 µM [%] |
| --- | --- |
| O=[N+]([O-])c1ccc(S(=O)(=O)Nc2ccc(Nc3nc4ccccc4nc3Cl)cc2)cc1 [XVIIIb, N-(4-((3-Chloroquinoxalin-2-yl)amino)phenyl)-4-nitrobenzenesulfonamide] | 9 |
| Cc1nc2ccccc2nc1Nc1ccc(NC(=O)c2ccc(Cl)cc2)cc1 [Compound VIIb, 4-Chloro-N-(4-((3-methylquinoxalin-2-yl)amino)phenyl)benzamide] | 4 |
| Cc1nc2ccccc2nc1Nc1ccc(NC(=O)Nc2ccccc2)cc1 [Compound VIIIb, 1-(4-((3-Methylquinoxalin-2-yl)amino)phenyl)-3-phenylurea] | 4 |
| Cc1cccc(NC(=O)Nc2ccc(Nc3nc4ccccc4nc3C)cc2)c1 [Compound VIIId, 1-(4-((3-Methylquinoxalin-2-yl)amino)phenyl)-3-(m-tolyl)urea] | 5 |

system: MCF-7 human breast adenocarcinoma cell line; assay: In vitro cell proliferation (MTT) assay, MCF-7; format: cell-based; settings: not given
Procedure: as §1, §2, §3

| SMILES | anti-cancer activity against MCF-7 cell line (in words) |
| --- | --- |
| Cc1nc2ccccc2nc1Nc1ccc(NC(=O)Nc2ccccc2)cc1 [Compound VIIIb, 1-(4-((3-Methylquinoxalin-2-yl)amino)phenyl)-3-phenylurea] | moderate activity |
| Cc1cccc(NC(=O)Nc2ccc(Nc3nc4ccccc4nc3C)cc2)c1 [Compound VIIId, 1-(4-((3-Methylquinoxalin-2-yl)amino)phenyl)-3-(m-tolyl)urea] | weak activity |

same assay, conditions: Homo sapiens, MCF7; MTT, 72 h exposure

| SMILES | pIC50 |
| --- | --- |
| O=[N+]([O-])c1ccc(S(=O)(=O)Nc2ccc(Nc3nc4ccccc4nc3Cl)cc2)cc1 [XVIIIb, N-(4-((3-Chloroquinoxalin-2-yl)amino)phenyl)-4-nitrobenzenesulfonamide] | 4.26 |
| Cc1nc2ccccc2nc1Nc1ccc(NC(=O)c2ccc(Cl)cc2)cc1 [Compound VIIb, 4-Chloro-N-(4-((3-methylquinoxalin-2-yl)amino)phenyl)benzamide] | 3.86 |
| Cc1nc2ccccc2nc1Nc1ccc(NC(=O)Nc2ccccc2)cc1 [Compound VIIIb, 1-(4-((3-Methylquinoxalin-2-yl)amino)phenyl)-3-phenylurea] | 4.87 |
| Cc1cccc(NC(=O)Nc2ccc(Nc3nc4ccccc4nc3C)cc2)c1 [Compound VIIId, 1-(4-((3-Methylquinoxalin-2-yl)amino)phenyl)-3-(m-tolyl)urea] | 4.52 |

system: not given; assay: not given; settings: not given

| SMILES | melting point [°C] |
| --- | --- |
| O=[N+]([O-])c1ccc(S(=O)(=O)Nc2ccc(Nc3nc4ccccc4nc3Cl)cc2)cc1 [XVIIIb, N-(4-((3-Chloroquinoxalin-2-yl)amino)phenyl)-4-nitrobenzenesulfonamide] | > 300 |
| Cc1nc2ccccc2nc1Nc1ccc(NC(=O)c2ccc(Cl)cc2)cc1 [Compound VIIb, 4-Chloro-N-(4-((3-methylquinoxalin-2-yl)amino)phenyl)benzamide] | 234 to 235 |
| Cc1nc2ccccc2nc1Nc1ccc(NC(=O)Nc2ccccc2)cc1 [Compound VIIIb, 1-(4-((3-Methylquinoxalin-2-yl)amino)phenyl)-3-phenylurea] | > 300 |
| Cc1cccc(NC(=O)Nc2ccc(Nc3nc4ccccc4nc3C)cc2)c1 [Compound VIIId, 1-(4-((3-Methylquinoxalin-2-yl)amino)phenyl)-3-(m-tolyl)urea] | 280 to 281 |
